Here are results for four compounds from patent US20080234368A9, “Therapeutic compositions and methods of use” (Trustees of Dartmouth College, priority 1998, published 2008).

Series [1] relates to LCDB acute myelogenous leukemia cell line. Briefly: Monocytic differentiation, α-naphthyl acetate esterase staining. The format is cell-based, human. As to conditions: TGF-β1 2.5 ng/ml, 48 h. As for the experimental part: CDDO induces monocytic differentiation in the poorly differentiated LCDB acute myelogenous leukemia cell line, derived from a chemotherapy-resistant patient at the NCI Pediatric Oncology Branch. FIG. 11 illustrates LCDB cells seeded in RPMI 1640/2% FBS, either alone (11A), with 2.5 ng/ml TGF-β1 (11B), with 10^−8 M CDDO (11C), or with both TGF-β1 and CDDO (11D). After 48 h, cytospin slide preparations were made and stained for α-naphthyl acetate esterase activity (kit from Sigma). PC12 cells were cultured for 5 days in gridded dishes in DMEM/10% FBS and 5% horse serum (Smith et al., 1997), either alone (11E), with 100 ng/ml 7S NGF (11F), with 10^−6 M CDDO (11G), or with both NGF and CDDO (11H). […] Methods for quantitative image analysis of size of cells and neurites have been described (De 1a Torre et al., 1997). Control cells in FIG. 11E are approximately 10 μm in diameter. 3T3-L1 cells were grown to confluency in DMEM/5% calf serum, and then treated once with CDDO in DMEM/10% FBS (FIG. 12A) or with CDDO and/or LG100268 in DMEM/10% FBS (FIG. 12B). Every two days thereafter, medium was changed to DMEM/10% FBS, without added CDD0 or LG100268. Cells were harvested on day 8 (FIG. 12A) or day 6 (FIG. 12B), and GPDH was measured in lysates, using a standard assay for consumption of NADH at 340 nm (Wise and Green, 1979).

Series [2] relates to NRP-152 non-malignant prostate epithelium cells. Briefly: Suppression of thymidine incorporation, dose-response (FIG. 13). As to conditions: NRP-152, 72 h; oleanolic acid statement at concentrations of 1 μM or less. Type of series: cell-based, rat. As for the experimental part:
(§1) Inhibitors of cell proliferation are known to be useful chemopreventive and chemotherapeutic agents. CDDO was tested against a wide variety of cells derived from highly aggressive leukemias and carcinomas, as well as from non-neoplastic tissues. NRP-152 cells were grown as described in Danielpour et al., 1994. MCF-7 cells were grown in phenol red-free RPMI 1640/10% charcoal-stripped FBS with added 17-β-estradiol (10 μM). Triterpenoids were added at the time of plating, and 72 h later ^3H-thymidine (1 μCi/well) was added for the final 2 h of incubation. Incorporation of thymidine was measured after cells were precipitated with TCA (10%), washed, and solubilized. The symbols used in FIG. 13 are CDDO, ▪; TP-82, ◯; and oleanolic acid; ●.
In general terms: Uptake of a labelled nucleoside into DNA is a usual measure of proliferation.

In series [3] the test system is MCF-7 breast carcinoma cells. The series is described as above. Type of series: cell-based, human. As to conditions: MCF-7 with 17-β-estradiol, 72 h; oleanolic acid statement at concentrations of 1 μM or less. As for the experimental part:
as §1

For series [4], the system named is IFN-γ-induced NO production in mouse macrophages. Briefly: Inhibition of IFN-γ induced NO production in mouse macrophages. Type of series: cell-based. As to conditions: Mus musculus, Macrophage; 4 ng/mL IFN-γ, 48 hours, nitrite by Griess reaction; average of two separate experiments; read-out: IC50 for Inhibition of IFN-γ-Induced NO Production in Mouse Macrophages. As for the experimental part:
The inhibitory activities of these compounds and dexamethasone on IFN-γ induced NO production in mouse macrophages is shown below in Table 1. The following procedure for the assay ws used. Macrophages were harvested from female mice injected intraperitoneally four days previously with 4% thioglycollate. These cells were seeded in 96-well tissue culture plates and incubated with 4 ng/mL IFN-γ in the presence or absence of inhibitory test compounds. After 48 hours NO production (measured as nitrite by the Griess reaction) was determined. Full details of the assay are given in Ding et al., 1990; Bogdan et al., 1992.

TGF-01: transforming growth factor-β1: in series [1], the “induction of α-naphthyl esterase activity (monocytic differentiation)” value is on record as “induced x-naphthyl esterase activity”.
Turning to `CC1(C)CC[C@]2(C(=O)O)CC[C@]3(C)C(=CC[C@@H]4[C@@]5(C)CC[C@H](O)C(C)(C)[C@@H]5CC[C@]43C)[C@@H]2C1` [oleanolic acid, reference compound], the suppressing thymidine incorporation entry in series [2] and in series [3] was “virtually without activity” each time.
As a reminder, the IC50 is the midpoint of a concentration-inhibition curve. For the compound `C[C@@H]1C[C@H]2[C@@H]3CCC4=CC(=O)C=C[C@]4(C)[C@@]3(F)[C@@H](O)C[C@]2(C)[C@@]1(O)C(=O)CO` [dexamethasone, reference compound], the IC50 in series [4] was found to be 1 nM.
For “3,11-dioxoolean-1,9-dien-28oic acid [TP-82]”, the suppressing thymidine incorporation entry in series [2] and in series [3] was “markedly less active” throughout.
